This is an account of results in the NIST ThermoML archive (doi:10.1016/j.jct.2011.02.003).

Numbers after ± are expanded uncertainties.

Data set [1] can be described thus: Molar enthalpy of transition or fusion. The note with it: Crystal; DSC.
The conditions of data set [2]: Crystal; DTA.

In the case of `Nc1ccccc1O` [2-hydroxybenzenamine], the “Molar enthalpy of transition or fusion” value in data set [1] was 6.39 ± 1.91 kcal/mol. Further, in data set [2], the Normal melting temperature was 175.57 ± 0.93 °C.

Consider `C[C@]12CCC(=O)C=C1CC[C@@H]1[C@@H]2CC[C@@]2(C)[C@H]1CC[C@]2(C)O` [17-methyltestosterone], for which the “Molar enthalpy of transition or fusion” value in data set [1] worked out at 5.98 ± 1.79 kcal/mol. For the same molecule, the Normal melting temperature in data set [2] worked out at 164.19 ± 0.71 °C.
